Data on five compounds can be found in patent US6787564B2, “Optically active clausenamides, process of the preparation thereof, pharmaceutical composition containing the same and their medical use” (Institute of Materia Medica, Chinese Academy of Medical …, priority 2002, dated 2004).

One test deals with mGlu receptor. The test is described as follows: effect of mGlu antagonist on LTP in hippocampal DG in vivo. Further details: species or system rats. The source says:
(§1) The rats were anaesthetized with urethane carbonate.
3. Glutamate, the most abundant excitatory neurotransmitter in the CNS, released from presynaptic site and activated a variety of postsynaptic receptor, and then potentiated synaptic transmission. mGlu R (metabotropic glutamate receptor) indirectly regulates signaling and activats various second messenger cascades.

The test system of another test is calpain. The test is described as follows: calpain activity in the cortical and hippocampal tissue. The class given is in vivo, rats. The following applies: without HFS, Nimodipine 2 nmol, mean ± S.D., n = 5; for calpain activity, Cortical tissue: control 1.5 ± 0.2; for calpain activity, Hippocampal tissue: control 1.7 ± 0.5.
Excerpt: as §1

The next test has as its system calcineurin. Briefly: calcineurin activity in the cortical and hippocampal tissue. Particulars: without HFS; Nimodipine 2 nmol; mean ± S.D., n = 5; control 7.8 ± 0.6.
Test [1] deals with β-AP (25-35)-treated rats. Briefly: one trial passive avoidance of β-AP (25-35)-treated rats. The class given is in vivo.
The subject of another test is A β 25-35 treated rats. The test is described as follows: Morris water maze, A β 25-35 induced impairment of memory. The class given is in vivo. The following applies: for initial heading angle on the 3th day (in words): (−),(+) clausenamide 8 and 40 mg.kg^−1, piracetam 400 mg·kg^−1; for initial heading angle on the 3th day (in words) / latency for finding the platform, 3th to 5th day: vs A β group; for latency for finding the platform, 3th to 5th day: (−),(+) clausenamide 8 and 40 mg·kg^−1, piracetam 400 mg.kg^−1. The source says: Pathological features of Alzheimer's disease (AD) include extensive neuronal loss and the presence of numerous neurofibrillary tangles and senile plaques in the brain. The senile plaques contain amyloid fibrils derived from a 39-43 amino acids peptide referred to as β-amyloid or A β which can produce neurotoxicity. A β 25-35 poccesses the similar neurotoxicity and ability of self-aggregation as A β 1-42. Administrated aggregated A β 25-35 into rat's lateral cerebral ventricle induced memory impairment in Morris water maze.
With increasing of training days, the initial heading angle became small. On the 3th day, the initial heading angle of A β group was larger than control. […] (see Tab.3)
There are four strategies for finding platform in Morris water maze: random, circle, taxis and line. In the beginning of training the search strategies for finding target is mainly circle and random, with the increasing of training, the percentage of the two strategies declined gradually, Beginning from the 3th day, declining speed in control and (−) clausenamide group was faster than A β,(+) clausenamide and piracetam groups.

In test [2] the test system is animals with anisodine-induced memory impairment. Briefly: step-through test, memory impairment induced by anisodine. The class given is in vivo. The following applies: 500 mg/kg oral once. The text has this:
(§2) This invention used one trial avoidance task—step-down and step-through tests and water maze to compare the improving memorial effects of (±), (−) clausenamide. The drugs were given orally once to animals before experiment in step-down and step-through tests. The water maze test lasted for 5 days in succession. The results were expressed as latency and errors number.

The test system is the same in test [3]. Briefly: step-down test, memory impairment induced by anisodine. The following applies: 500 mg/kg oral once. The class given is in vivo.
Excerpt: as §2

The test system of test [4] is animals. The test is described as follows: memory in water maze test. The class given is in vivo. Particulars: 500 mg/kg.
Excerpt: as §2

Test [5] deals with animals with anisodine-induced memory impairment. The test is described as follows: memory impairment induced by anisodine in water maze test. The class given is in vivo. Particulars: anisodine + drug 500 mg/kg.
Excerpt: as §2

Test [6] has as its system animals. The test is described as follows: nootropic action overall: step-down, step-through and water maze tests. The class given is in vivo. Particulars: oral; Tab.4 to Tab.7. As to the method: This invention used one trial avoidance task—step-down and step-through tests and water maze to compare the improving memorial effects of (±), (−) clausenamide.
The drugs were given orally once to animals before experiment in step-down and step-through tests. The water maze test lasted for 5 days in succession. The results were expressed as latency and errors number.
The effective dose of piracetam was 500 mg.kg^−1.

In another test the test system is rats. Briefly: mossy fiber sprouting in fascia dentata and hippocampal CA3 region. The class given is in vivo. The following applies: 8 and 40 mg·kg^−1 orally daily for 10 days; adult rat. The source says: 2. […] This is morphological basis for levoclausenamide to incnease synaptic transmission (see FIGS. 1 and 2).
Another test concerns BDNF. Briefly: BDNF protein expression in cortical neurons and hippocampal pyramide cells. The class given is in vivo, rats. The following applies: 8, 40 mg·kg^−1 orally daily for 10 days.
Test [7] deals with dentate gyrus granule cells. The test is described as follows: basal synaptic transmission / LTP in dentate gyrus of hippocampus in anesthetized rats (population spike amplitude). The following applies: icv. The class given is in vivo. The text has this: Drugs or vehicle injection were delivered via cannula in the lateral cerebral ventricle at final concentration of 2×10^−6 mol/L. The population spike (PS) amplitude was employed as an indication of the level of excitation of the granular cell population in the dentate gyrus. To obtain this measurement, an evoked response was generated in the dentate gyrus granule cell layer by stimulating the pp at low freguency (0.033 Hz) with. single square wave pulses of 0.15 ms duration The LTP formation must accord the following creteria: The PS amplitude increased is over 30% and this high PS amplitude can persist for 40 min.

Test [8] deals with dentate gyrus of hippocampus. The test is described as follows: induction of LTP in hippocampal of rat (population spike amplitude). The class given is in vivo, SD rats. The following applies: I.C.V.; means ± SD. The text has this: Adult male SD rats were anesthetized to maintain a surgical level. A stainless steel cannula-recording electrode was placed in DG (dentate gyrus) of hippocampus using a stereotaxic instrument. The combination of cannula-recording electrode was constructed by insulating the outside of the cannula, except at the tip and top. In the top noninsulated area, a stainless steel wire was wrapped around the cannula and connected to the amplifier via an amphenol connector. The four pairs optically active clausenamides shown in table 9 was delivered by I.C.V. Responses were evoked via direct stimulation of the performant path (PP) using a stainless steel bipolar stimulating electrode. Constant current stimulation provided by a stimulator was delivered to the stimulating electrode through a Stimulus Isolation Unit.
The stimulating electrode was adjusted until a characteristic EPSP was observed under constant current. The evoked responses were amplified on a series alternating current preamplifier, using a microcomputer, and then stored for off-line analysis using DataWave software. The current intensity that elicited a 50% maximal response in each animal was determined and used for all subsequent stimulation. To measure treatment effects, responses were evoked once every 30 sec throughout the entire experiment, and population spike amplitude(PSA) were calculated.

Where [9] appears, read: β-AP-treated + drug 400 mg/kg, n = 8.
Setting [10] is: β-AP-treated + drug 8 mg/kg, n = 9.
The mark [11] stands for this setting: β-AP-treated + drug 40 mg/kg, n = 9.

Excerpt for calcineurin: The rats were anaesthetized with urethane carbonate. The recording and stimulating electrodes were made from Teflon coated stainless steel wires. The bipolar stimulating electrode was sterotaxically placed in the entorhinal cortex to stimulate the perforant path, and the evoked potential was extracellular recorded from the dentate gyrus granule cell layer of ipsilateral. The population spike (PS) is served as an indication of granule cell's excitation. Long term potentiation (LTP) was induced by a 200 Hz high frequency stimulation 5×single square wave pulses of 0.2 ms duration. The drug or vehicle (DMSO) were injected into lateral cerebral ventricle in a 5 μl volume over a 5 min period via a Hamilton syringe.

Take `CC(N)(C(=O)O)c1ccc(C(=O)O)cc1` (racemic) [(±) MCPG, (±)-α-methyl-4-carboxyphenylglycine]: the “induction of LTP induced by HFS and levoclausenamide” value in the test on mGlu receptor (10 μmol, icv) is listed as “inhibited the induction of LTP”. Moreover, the “established LTP” value in the test with mGlu receptor (given 15 min after HFS or levoclausenamide) is on record as “reversed the established LTP”.
On to `NC(CCCP(=O)(O)O)C(=O)O` (stereo not shown) [AP5], for which, in the test on calpain, the “calpain activity, Cortical tissue” value is 1.6 ± 0.4 ΔA595nm/hr/mg protein and the “calpain activity, Hippocampal tissue” value is 1.6 ± 0.6 ΔA595nm/hr/mg protein. In the test on calcineurin, the “calcineurin activity, Hippocampal tissue” value is listed as 8.1 ± 0.7 (μmol Pi)/hr/μ g protein.
Regarding `COCCOC(=O)C1=C(C)NC(C)=C(C(=O)OC(C)C)C1c1cccc([N+](=O)[O-])c1` (stereo not shown) [Nimodipine], in the test on calpain, the “calpain activity, Cortical tissue” value is reported as 1.7 ± 0.3 ΔA595nm/hr/mg protein and the “calpain activity, Hippocampal tissue” value is 1.8 ± 0.5 ΔA595nm/hr/mg protein. In the test with calcineurin, the “calcineurin activity, Hippocampal tissue” value is on record as 7.7 ± 0.8 (μmol Pi)/hr/μ g protein.
For `NC(=O)CN1CCCC1=O` [Piracetam, 2-oxo-1 pyrolidine acetamide], in [1] (setting [9]), the “Number of error, Acquisition” value was 1.6 ± 0.26 and the “Number of error, Training” value turned out to be 4.1 ± 1.14. In addition, in the test with A β 25-35 treated rats, the “initial heading angle on the 3th day (in words)” value is “showed no improving effects” and the “latency for finding the platform, 3th to 5th day” value is on record as “showed no effect”. In the test on A β 25-35 treated rats (A β 25-35 + drug at 400 mg/kg), the “initial heading angle, training day 1” value was determined as 92.5 ± 28.9; the “initial heading angle, training day 2” value was determined as 87.3 ± 24.2; the “initial heading angle, training day 3” value turned out to be 74.6 ± 23.7; the “initial heading angle, training day 4” value came to 62.5 ± 19.6. In the test on A β 25-35 treated rats (A β 25-35 + drug at 400 mg/kg), the “initial heading angle, training day 5” value was 44.5 ± 14.3. Besides, the “Latencies, Step-through” value in test [2] (0.9% Nacl + anisodine 24.4 ± 59) was found to be 107 ± 110 s. The “Error number, Step-through” value in [2] (N = 10, X ± SD, 0.9% Nacl + anisodine 12.7 ± 4.6) is recorded as 4.1 ± 3.2. In test [3] (0.9% Nacl + anisodine 0.9 ± 1.0), the “Error number, Step-down” value is 0.7 ± 0.5. Besides, in test [3] (0.9% Nacl + anisodine 184 ± 105), the “Latencies, Step-down” value worked out at 180 ± 110 s. Moreover, in the test with animals [4] (0.9% Nacl 25.8 ± 18.4), the “Lalencies reaching platform, 3rd day” value was found to be 18.6 ± 9.9 s. Moreover, the “Lalencies reaching platform, 4th day” value in the test with animals [4] (0.9% Nacl 26.1 ± 38.4) is 16.7 ± 16.3 s. Also, the “Lalencies reaching platform, Second day” value in the test on animals [4] (N = 10, X ± S.D., 0.9% Nacl 32.4 ± 29.2) worked out at 32.2 ± 22.6 s. Moreover, the Errors number in test [5] is 23.5 ± 25.0. The “effective dose of piracetam (comparator)” value with animals [6] came to 500 mg/kg.
Regarding (+) clausenamide [reference compound], in the test with rats, the “mossy fiber sprouting in the fascia dentate and stratum lucidum” value is reported as “no significant effect”. Further, in the test with BDNF, the “BDNF protein expression in the cortical neurons and pyramide cells in the hippocampus” value is on record as “slightly increasing effect only at a dose of 40 mg·kg^−1”. Also, in test [1] (setting [10]), the “Number of error, Acquisition” value turned out to be 0.8 ± 0.38 and the “Number of error, Training” value came to 3.3 ± 0.42. Also, in test [1] (setting [11]), the “Number of error, Acquisition” value came to 1.1 ± 0.19 and the “Number of error, Training” value turned out to be 3.9 ± 2.3. Further, in the test with A β 25-35 treated rats, the “initial heading angle on the 3th day (in words)” value is “showed no improving effects” and the “latency for finding the platform, 3th to 5th day” value was “showed no effect”. In the test with A β 25-35 treated rats (A β 25-35 + drug at 8 mg/kg), the “initial heading angle, training day 1” value is on record as 99.4 ± 31.7; the “initial heading angle, training day 2” value turned out to be 93.5 ± 29.6; the “initial heading angle, training day 3” value was 82.1 ± 26.7; the “initial heading angle, training day 4” value was 70.2 ± 21.5. For the same compound, in the test on A β 25-35 treated rats (A β 25-35 + drug at 8 mg/kg), the “initial heading angle, training day 5” value is reported as 59.2 ± 18.3. Moreover, in the test on A β 25-35 treated rats (A β 25-35 + drug at 40 mg/kg), the “initial heading angle, training day 1” value is 112.4 ± 32.8; the “initial heading angle, training day 2” value is 102.5 ± 28.7; the “initial heading angle, training day 3” value is 84.2 ± 22.5; the “initial heading angle, training day 4” value came to 83.1 ± 26.5. In the test with A β 25-35 treated rats (A β 25-35 + drug at 40 mg/kg), the “initial heading angle, training day 5” value was 65.4 ± 20.8. Also, in test [7] (2×10^−6 mol/L), the “PS % at 15′, in comparison with control (vehicle) group” value is given as −2.7%; the “PS % at 30′, in comparison with before drug” value was −5.9%; the “PS % at 30′, in comparison with control (vehicle) group” value is −12.0%; the “PS % at 45′, in comparison with before drug” value is −12.9%. In addition, in [7] (2×10^−6 mol/L), the “PS % at 45′, in comparison with control (vehicle) group” value was −20.0%; the “PS % at 60′, in comparison with before drug” value is −14.9%; the “PS % at 60′, in comparison with control (vehicle) group” value is reported as −23.2%. Further, in [7] (2×10^−6 mol/L, control 108 ± 7), the “PS amplitude 30′ after drug” value was 95 ± 9. Further, in test [7] (2×10^−6 mol/L, control 110 ± 10), the “PS amplitude 45′ after drug” value came to 88 ± 15. Moreover, the “PS amplitude 60′ after drug” value in [7] (2×10^−6 mol/L, control 112 ± 7) came to 86 ± 18. Moreover, in [7] (final concentration 2×10^−6 mol/L, control 110 ± 9), the “PS amplitude 15′ after drug” value was determined as 107 ± 8. Also, in test [8], the “PSA (%), 15 min” value was 90.6 ± 0.3%; the “PSA (%), 30 min” value was found to be 110.1 ± 13.1%; the “PSA (%), 60 min” value worked out at 106.4 ± 4.1%.
